Among the data in ChEMBL document CHEMBL1153680, “Structural influences of styryl-based inhibitors on epidermal growth factor receptor and p56lck tyrosine-specific protein kinases” (Bioorg Med Chem Lett, 1991) are IC50 values, retold here.

Experiment [1] concerns the target Epidermal growth factor receptor (Homo sapiens, UniProt P00533). As to the kind of experiment: Inhibition of Epidermal growth factor receptor.
Experiment [2] concerns the target Tyrosine-protein kinase Lck (Homo sapiens, UniProt P06239). As to the kind of experiment: Inhibition of p56 lck tyrosine kinase.

Sequence of Epidermal growth factor receptor (P00533 whole entry): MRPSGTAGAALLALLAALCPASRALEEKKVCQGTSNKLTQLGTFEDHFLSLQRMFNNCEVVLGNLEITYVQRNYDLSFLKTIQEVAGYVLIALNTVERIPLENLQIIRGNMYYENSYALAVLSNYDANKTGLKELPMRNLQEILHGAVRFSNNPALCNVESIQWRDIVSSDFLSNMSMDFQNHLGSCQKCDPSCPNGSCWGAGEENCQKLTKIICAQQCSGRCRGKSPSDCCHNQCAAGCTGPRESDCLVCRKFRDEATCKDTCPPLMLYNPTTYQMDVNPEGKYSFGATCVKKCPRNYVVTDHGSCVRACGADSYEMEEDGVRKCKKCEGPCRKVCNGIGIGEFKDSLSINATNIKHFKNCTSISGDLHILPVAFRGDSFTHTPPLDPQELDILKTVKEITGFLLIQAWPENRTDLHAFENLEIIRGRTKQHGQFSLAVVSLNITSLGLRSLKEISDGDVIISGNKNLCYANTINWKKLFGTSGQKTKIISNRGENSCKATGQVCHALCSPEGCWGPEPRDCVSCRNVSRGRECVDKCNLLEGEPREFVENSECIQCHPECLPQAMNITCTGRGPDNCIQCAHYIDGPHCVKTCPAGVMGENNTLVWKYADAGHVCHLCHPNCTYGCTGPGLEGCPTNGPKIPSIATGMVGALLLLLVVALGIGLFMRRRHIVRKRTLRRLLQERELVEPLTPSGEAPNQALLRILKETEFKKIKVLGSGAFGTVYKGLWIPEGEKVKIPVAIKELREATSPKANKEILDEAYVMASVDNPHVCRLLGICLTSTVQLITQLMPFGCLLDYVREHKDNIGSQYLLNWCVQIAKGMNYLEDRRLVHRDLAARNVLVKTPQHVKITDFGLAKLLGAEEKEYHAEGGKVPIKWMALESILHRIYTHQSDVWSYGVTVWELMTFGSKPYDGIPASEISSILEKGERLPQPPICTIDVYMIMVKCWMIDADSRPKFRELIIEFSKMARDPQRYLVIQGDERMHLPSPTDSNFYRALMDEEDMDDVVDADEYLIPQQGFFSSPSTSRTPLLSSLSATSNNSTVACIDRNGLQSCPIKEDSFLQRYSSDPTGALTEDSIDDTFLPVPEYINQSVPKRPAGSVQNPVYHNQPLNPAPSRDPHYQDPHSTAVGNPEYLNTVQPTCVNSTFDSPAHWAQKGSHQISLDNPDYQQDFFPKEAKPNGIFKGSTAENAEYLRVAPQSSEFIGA
Sequence of Tyrosine-protein kinase Lck (P06239 whole entry): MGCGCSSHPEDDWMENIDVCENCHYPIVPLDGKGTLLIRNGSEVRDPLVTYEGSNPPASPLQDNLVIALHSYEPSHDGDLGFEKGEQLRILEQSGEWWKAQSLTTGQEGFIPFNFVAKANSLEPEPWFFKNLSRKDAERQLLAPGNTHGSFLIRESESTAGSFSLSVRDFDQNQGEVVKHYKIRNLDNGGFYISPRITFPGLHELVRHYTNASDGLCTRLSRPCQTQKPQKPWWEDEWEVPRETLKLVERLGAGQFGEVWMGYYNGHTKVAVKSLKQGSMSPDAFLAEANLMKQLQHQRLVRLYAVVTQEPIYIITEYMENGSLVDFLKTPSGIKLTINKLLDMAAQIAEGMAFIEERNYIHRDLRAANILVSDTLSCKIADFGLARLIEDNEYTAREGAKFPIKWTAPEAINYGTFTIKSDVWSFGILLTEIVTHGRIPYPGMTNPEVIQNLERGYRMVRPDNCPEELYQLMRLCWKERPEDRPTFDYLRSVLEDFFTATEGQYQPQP

A word on the IC50: it is the concentration that inhibits the measured activity by half. Low readings indicate greater potency in that assay, high ones weaker potency in that assay. Regarding `N#C/C(=C\c1ccc(O)c(O)c1)C(N)=O`, the IC50 was 4 µM in experiment [1] and 7 µM in experiment [2].
In experiment [1], `O=CN/C=C/c1ccc(O)c(O)c1` yielded an IC50 of 7 µM.
As for `N#C/C(=C\c1cc(O)ccc1O)C(N)=O`, the IC50 in experiment [1] was 10 µM; in experiment [2], 100 µM.
In experiment [1], `O=CN/C=C/c1cc(O)ccc1O` [ERBSTATIN] displayed an IC50 of 3 µM.
